Reference: patent US6838415B1, “Substituted benzoylisoxazoles and the use thereof as herbicides” (Bayer Aktiengesellschaft, priority 1999, dated 2005)

Columns and labels:
[1] = logP by HPLC on reverse-phase column (C 18), acidic range; format: physicochemical; conditions: for logP a): acidic range: 0.1% aqueous phosphoric acid/acetonitrile gradient, HPLC C 18, 43° C.; for logP: HPLC reverse-phase column (C 18), 43° C., acidic range: 0.1% aqueous phosphoric acid, acetonitrile; data labelled a)
Experimental: (§1) The logP values given in Table 1 were determined in accordance with EE Directive 79/831 Annex V.A8 by HPLC (High Performance Liquid Chromatography) using a reverse-phase column (C 18). Temperature: 43° C. (a) Mobile phases for the determination in the acidic range: 0.1% aqueous phosphoric acid, acetonitrile; linear gradient from 10% acetonitrile to 90% acetonitrile—the corresponding data in Table 1 are labelled ^a). Calibration was carried out using unbranched alkan-2-ones (with from 3 to 16 carbon atoms) whose logP values are known (determination of the logP values by the retention times using linear interpolation between two successive alkanones). The logP values given in Table 3 were determined in accordance with EEC Directive 79/831 Annex V.A8 by HPLC (High Performance Liquid Chromatography) using a reverse-phase column (C 18). Temperature: 43° C. (a) Mobile phases for the determination in the acidic range: 0.1% aqueous phosphoric acid, acetonitrile; linear gradient from 10% acetonitrile to 90% acetonitrile—the corresponding data in Table 3 are labelled ^a). Calibration was carried out using unbranched alkan-2-ones (with from 3 to 16 carbon atoms) whose logP values are known (determination of the logP values by the retention times using linear interpolation between two successive alkanones).

[2] = logP by HPLC on reverse-phase column (C 18), neutral range; format: physicochemical; conditions: neutral range: 0.01 molar aqueous phosphate buffer/acetonitrile gradient, HPLC C 18, 43° C.
Experimental: as §1, with “(b)” for “(a)”, “neutral” for “acidic”, “0.01 molar” for “0.1%”, “phosphate buffer solution,” for “phosphoric acid,”, “^b).” for “^a).”

weeds [3] = test: Pre-emergence test, action against weeds; format: in vivo; conditions: soil sprayed about 24 hours after sowing, rated after three weeks
Experimental: (§2) Pre-emergence Test [table] To produce a suitable preparation of active compound, 1 part by weight of active compound is mixed with the stated amount of solvent, the stated amount of emulsifier is added and the concentrate is diluted with water to the desired concentration. Seeds of the test plants are sown in normal soil. After about 24 hours, the soil is sprayed with the preparation of active compound such that the particular amount of active compound desired is applied per unit area. The concentration of the spray liquor is chosen so that the particular amount of active compound desired is applied in 1000 liters of water per hectare. After three weeks, the degree of damage to the plants is rated in % damage in comparison to the development of the untreated control. The figures denote: [table]

[4] = system: crop plants, such as, for example, wheat; test: Post-emergence test, tolerance by crop plants; format: in vivo; conditions: rated after three weeks
Experimental: (§3) Post-emergence Test [table] To produce a suitable preparation of active compound, 1 part by weight of active compound is mixed with the stated amount of solvent, the stated amount of emulsifier is added and the concentrate is diluted with water to the desired concentration. Test plants which have a height of 5-15 cm are sprayed with the preparation of active compound such that the particular amounts of active compound desired are applied per unit area. The concentration of the spray liquor is chosen so that the particular amounts of active compound desired are applied in 1000 l of water/ha After three weeks, the degree of damage to the plants is rated in % damage in comparison to the development of the untreated control. The figures denote: [table]

[5] = system: crop plants, such as, for example, maize; test: Pre-emergence test, tolerance by crop plants; format: in vivo; conditions: rated after three weeks
Experimental: as §2

weeds [6] = test: Post-emergence test, activity against weeds; format: in vivo; conditions: test plants 5-15 cm sprayed, rated after three weeks
Experimental: as §3

| logP a) [1] | logP [1] | SMILES | other results |
| --- | --- | --- | --- |
| (IA) logP = 3.22^a) | – | COC(=O)c1noc(C2CC2)c1C(=O)c1ccc(C(F)(F)F)cc1Cn1nc(SC)n(C)c1=O [Example 7] | – |
| logP = 2.46^a) | – | COc1c(C(=O)c2cnoc2C2CC2)ccc(Cl)c1CN1CCN(C)C1=O [ID-2] | – |
| (IA) logP = 3.32^a) | – | CCOc1nn(Cc2cc(C(F)(F)F)ccc2C(=O)c2c(C(=O)OC)noc2C2CC2)c(=O)n1C [Example 6] | – |
| – | – | CCOn1c(CC)nn(Cc2cc(Br)ccc2C(=O)c2c(C(=O)OC)noc2C2CC2)c1=O [Example 4] | logP b) [2]: (IA) logP = 3.36^b); action against weeds (degree of damage) (weeds [3]): strong action against weeds; tolerance by crop plants [4]: tolerated well; tolerance by crop plants [5]: tolerated well; activity against weeds (degree of damage) (weeds [6]): very strong activity against weeds |
| – | logP = 3.37^a) | COC(=O)c1ccc(C(F)(F)F)cc1Cn1c(=O)oc2ccccc21 [VII-121] | – |
| – | logP = 3.29^a) | COC(=O)c1ccc(C(F)(F)F)cc1CN1C(=O)c2ccccc2S1(=O)=O [VII-122] | – |
| logP = 2.48^a) | – | CN1CCN(Cc2c(Cl)ccc(C(=O)c3cnoc3C3CC3)c2Cl)C1=O [ID-1] | – |
| (IA) logP = 3.15^a) | – | CCOc1nn(Cc2cc(Br)ccc2C(=O)c2c(C(=O)OC)noc2C2CC2)c(=O)n1C [Example 3] | action against weeds (degree of damage) (weeds [3]): strong action against weeds; tolerance by crop plants [4]: tolerated well; tolerance by crop plants [5]: tolerated well; activity against weeds (degree of damage) (weeds [6]): very strong activity against weeds |
| – | – | CSc1nn(Cc2cc(C(F)(F)F)ccc2C(=O)c2cnoc2C2CC2)c(=O)n1C [Example 2, (5-cyclopropyl-isoxazol-4-yl)-[2-(4-methyl-3-methylthio-5-oxo-4,5-dihydro-[1,2,4]-triazol-1-yl-methyl)-4-trifluoromethyl-phenyl]-methanone] | chromatographic logP ([1]; reverse-phase HPLC column (C 18), pH=2.3, read-out: logP (determined at pH=2.3)): 2.94 |
| – | logP = 3.26^a) | COC(=O)c1ccc(C(F)(F)F)cc1Cn1nnc2ccccc2c1=O [VII-123] | – |
| – | logP = 3.08^a) | CCOC(=O)c1ccc(C(F)(F)F)cc1Cn1nc(OC)n(C2CC2)c1=O [VII-91] | – |
| (IA) logP = 3.50^a) | – | COC(=O)c1noc(C2CC2)c1C(=O)c1ccc(Br)cc1Cn1nc(C(F)(F)F)n(C)c1=O [Example 5] | – |
